In US20130338142A1, “IMIDAZOPYRAZINE SYK INHIBITORS” (Gilead Connecticut, Inc., priority 2012, published 2013):

biological target: Syk (Homo sapiens, UniProt P43405); assay: High throughput Syk assay (TR-FRET, KinEASE); format: biochemical; conditions: Syk TR-FRET assay of Example B2; 3 μM ATP, 0.5 nM Syk
Description: The following high throughput Syk assay was performed on the compounds of Table 1 as follows.
Syk activity was measured by detecting phosphorylated peptide substrate formation using antibody against phosphorylated peptide substrate. This is a time-resolved fluorescence resonance energy transfer (TR-FRET) immunoassay, based on the KinEASE Assay (Cisbio). […] Test compounds (in DMSO) were spotted into 384 well plates using a Labcyte® Echo 550 Liquid Handling System prior to addition of Syk enzyme and peptide substrate. Reaction solutions were delivered using a Multi-Flo (Bio-Tek Instruments). The enzyme and peptide solution was incubated with compound for 60 minutes at room temp before the reaction was initiated by the addition of ATP. […] The europium donor was excited using a 340-nm excitation filter with a 30-nm band pass. Energy transfer to the tracer was measured using a filter centered at 665 nm with a 10 nm bandpass. This signal was then referenced to the emission from europium peak, using a 615 nm, 10-nm bandpass filter. The “emission ratio” was calculated as the 665 nm signal divided by the 615 nm signal. Percentage of inhibition was calculated as below:
% Inhibition=100×(RatioSample−Ratio0% Inhibition)/(Ratio100% Inhibition−Ratio0% Inhibition)

Row | IC50 [nM] | Compound
1 | 5 | COc1cc(Nc2nc(-c3cnc4c(c3)NCCO4)cn3ccnc23)ccc1N1CCC(=NO)CC1 [Compound 105, 1-(4-((6-(2,3-dihydro-1H-pyrido[2,3-b][1,4]oxazin-7-yl)imidazo[1,2-a]pyrazin-8-yl)amino)-2-methoxyphenyl)piperidin-4-one oxime]
2 | 2 | COc1cc(Nc2nc(-c3cnc4c(c3)NCCO4)cn3ccnc23)ccc1N(C)C [Compound 35, N4-(6-(2,3-dihydro-1H-pyrido[2,3-b][1,4]oxazin-7-yl)imidazo[1,2-a]pyrazin-8-yl)-2-methoxy-N1,N1-dimethylbenzene-1,4-diamine]
3 | 7 | OC1(c2ccc(Nc3nc(-c4cnc5c(c4)NCCO5)cn4ccnc34)cc2)CCC1 [Compound 101, 1-(4-((6-(2,3-dihydro-1H-pyrido[2,3-b][1,4]oxazin-7-yl)imidazo[1,2-a]pyrazin-8-yl)amino)phenyl)cyclobutanol]
4 | 8 | COc1cc(Nc2nc(-c3ccc4c(c3)C(=O)NCCO4)cn3ccnc23)ccc1N1CCN(C2COC2)CC1 [Compound 55, 7-(8-((3-methoxy-4-(4-(oxetan-3-yl)piperazin-1-yl)phenyl)amino)imidazo[1,2-a]pyrazin-6-yl)-3,4-dihydrobenzo[f][1,4]oxazepin-5(2H)-one]
5 | 17 | CO/N=C(\C)c1ccc(Nc2nc(-c3cnc4c(c3)NCCO4)cn3ccnc23)cc1 [Compound 107, (E)-1-(4-((6-(2,3-dihydro-1H-pyrido[2,3-b][1,4]oxazin-7-yl)imidazo[1,2-a]pyrazin-8-yl)amino)phenyl)ethanone O-methyl oxime]
6 | 11 | c1cn2cc(-c3ccc4c(c3)NCCO4)nc(Nc3ccc(N4CCN(C5COC5)CC4)cc3)c2n1 [Example 24, 6-(3,4-dihydro-2H-benzo[b][1,4]oxazin-6-yl)-N-(4-(4-(oxetan-3-yl)piperazin-1-yl)phenyl)imidazo[1,2-a]pyrazin-8-amine]
7 | 3 | COc1cc(Nc2nc(-c3cnc4c(c3)NCCO4)cn3ccnc23)ccc1N1CCN(C(=O)[C@H](C)O)CC1 [Compound 85, (S)-1-(4-(4-((6-(2,3-dihydro-1H-pyrido[2,3-b][1,4]oxazin-7-yl)imidazo[1,2-a]pyrazin-8-yl)amino)-2-methoxyphenyl)piperazin-1-yl)-2-hydroxypropan-1-one]
8 | 2 | COc1cc(Nc2nc(-c3cnc4c(c3)NCCS4)cn3ccnc23)ccc1N1CCOCC1 [Compound 58, 6-(2,3-dihydro-1H-pyrido[2,3-b][1,4]thiazin-7-yl)-N-(3-methoxy-4-morpholinophenyl)imidazo[1,2-a]pyrazin-8-amine]
9 | 10 | COc1cc(Nc2nc(-c3cnc4c(c3)NCCO4)cn3ccnc23)ccc1N1CCN(C2COC2)C(C)(C)C1 [Compound 84, 6-(2,3-dihydro-1H-pyrido[2,3-b][1,4]oxazin-7-yl)-N-(4-(3,3-dimethyl-4-(oxetan-3-yl)piperazin-1-yl)-3-methoxyphenyl)imidazo[1,2-a]pyrazin-8-amine]
10 | 6 | COc1cc(Nc2nc(-c3ccc4c(c3)C(=O)NCCO4)cn3ccnc23)ccc1N1CCOCC1 [Compound 2, 7-(8-((3-methoxy-4-morpholinophenyl)amino)imidazo [1,2-a]pyrazin-6-yl)-3,4-dihydrobenzo[f][1,4]oxazepin-5(2H)-one]
11 | 7 | c1cn2cc(-c3cnc4c(c3)NCCO4)nc(Nc3ccc(C4CCOCC4)cc3)c2n1 [Compound 39, 6-(2,3-dihydro-1H-pyrido[2,3-b][1,4]oxazin-7-yl)-N-(4-(tetrahydro-2H-pyran-4-yl)phenyl)imidazo[1,2-a]pyrazin-8-amine]
12 | 6 | COc1cc(Nc2nc(-c3ccc4c(c3)NCCO4)cn3ccnc23)ccc1N1CC[C@@H](N)C1 [Compound 9, (R)-N-(4-(3-aminopyrrolidin-1-yl)-3-methoxyphenyl)-6-(3,4-dihydro-2H-benzo[b][1,4]oxazin-6-yl)imidazo[1,2-a]pyrazin-8-amine]
13 | 4 | CC(C)c1ncc(Nc2nc(-c3cnc4c(c3)NCCO4)cn3ccnc23)s1 [Compound 54, N-(6-(2,3-dihydro-1H-pyrido[2,3-b][1,4]oxazin-7-yl)imidazo[1,2-a]pyrazin-8-yl)-2-isopropylthiazol-5-amine]
14 | 8 | OC1(c2ccc(Nc3nc(-c4cnc5c(c4)NCCO5)cn4ccnc34)cc2)COC1 [Compound 102, 3-(4-((6-(2,3-dihydro-1H-pyrido[2,3-b][1,4]oxazin-7-yl)imidazo[1,2-a]pyrazin-8-yl)amino)phenyl)oxetan-3-ol]
15 | 7 | COc1cc(Nc2nc(-c3cnc4c(c3)NCCO4)cn3ccnc23)ccc1N1CCC[C@](C)(O)C1 [Compound 52, (S)-1-(4-((6-(2,3-dihydro-1H-pyrido[2,3-b][1,4]oxazin-7-yl)imidazo[1,2-a]pyrazin-8-yl)amino)-2-methoxyphenyl)-3-methylpiperidin-3-ol]
16 | 9 | CN(C)C[C@@H]1CN(c2ccc(Nc3nc(-c4cnc5c(c4)NCCO5)cn4ccnc34)cc2)CCO1 [Compound 61, (R)-6-(2,3-dihydro-1H-pyrido[2,3-b][1,4]oxazin-7-yl)-N-(4-(2-((dimethylamino)methyl)morpholino)phenyl)imidazo[1,2-a]pyrazin-8-amine]
17 | 33 | COc1cc(Nc2nc(-c3cnc4c(c3)NCCO4)cn3ccnc23)ccc1N1CC(C)(O)C1 [Compound 98, 1-(4-((6-(2,3-dihydro-1H-pyrido[2,3-b][1,4]oxazin-7-yl)imidazo[1,2-a]pyrazin-8-yl)amino)-2-methoxyphenyl)-3-methylazetidin-3-ol]
18 | 21 | COc1cc(Nc2nc(-c3cnc4c(c3)NCCO4)cn3ccnc23)ccc1-n1ccnc1 [Compound 40, N-(4-(1H-imidazol-1-yl)-3-methoxyphenyl)-6-(2,3-dihydro-1H-pyrido[2,3-b][1,4]oxazin-7-yl)imidazo[1,2-a]pyrazin-8-amine]
19 | 7 | CO/N=C(/C)c1ccc(Nc2nc(-c3cnc4c(c3)NCCO4)cn3ccnc23)cc1 [Compound 108, (Z)-1-(4-((6-(2,3-dihydro-1H-pyrido[2,3-b][1,4]oxazin-7-yl)imidazo[1,2-a]pyrazin-8-yl)amino)phenyl)ethanone O-methyl oxime]
20 | 5 | c1cn2cc(-c3cnc4c(c3)NCCO4)nc(Nc3cnn(C4CCOCC4)c3)c2n1 [Compound 44, 6-(2,3-dihydro-1H-pyrido[2,3-b][1,4]oxazin-7-yl)-N-(1-(tetrahydro-2H-pyran-4-yl)-1H-pyrazol-4-yl)imidazo[1,2-a]pyrazin-8-amine]
21 | 14 | COc1cc(Nc2nc(-c3cnc4c(c3)NCCO4)cn3ccnc23)ccc1N1CCOC(C)(C)C1 [Compound 81, 6-(2,3-dihydro-1H-pyrido[2,3-b][1,4]oxazin-7-yl)-N-(4-(2,2-dimethylmorpholino)-3-methoxyphenyl)imidazo[1,2-a]pyrazin-8-amine]
22 | 18 | c1cn2cc(-c3ccc4c(c3)CNCCO4)nc(Nc3ccc(N4CCOCC4)cc3)c2n1 [Compound 78, N-(4-morpholinophenyl)-6-(2,3,4,5-tetrahydrobenzo[f][1,4]oxazepin-7-yl)imidazo[1,2-a]pyrazin-8-amine]
23 | 39 | COc1cc(Nc2nc(-c3cnc4c(c3)N(C)C(=O)CO4)cn3ccnc23)ccc1N1CCOCC1 [Compound 60, 7-(8-((3-methoxy-4-morpholinophenyl)amino)imidazo [1,2-a]pyrazin-6-yl)-1-methyl-1H-pyrido[2,3-b][1,4]oxazin-2(3H)-one]
24 | 16 | COc1cc(Nc2nc(-c3cnc4c(c3)NCCO4)cn3ccnc23)ccc1N1CC2COCC2C1 (stereo not drawn) [Compound 99, 6-(2,3-dihydro-1H-pyrido[2,3-b][1,4]oxazin-7-yl)-N-(3-methoxy-4-(tetrahydro-1H-furo[3,4-c]pyrrol-5(3H)-yl)phenyl)imidazo[1,2-a]pyrazin-8-amine]
25 | 2 | COc1cc(Nc2nc(-c3cnc4c(c3)NCCO4)cn3ccnc23)ccc1OC1COC1 [Compound 30, 6-(2,3-dihydro-1H-pyrido[2,3-b][1,4]oxazin-7-yl)-N-(3-methoxy-4-(oxetan-3-yloxy)phenyl)imidazo[1,2-a]pyrazin-8-amine]
26 | 7 | COc1cc(Nc2nc(-c3ccc4c(c3)OCCN4)cn3ccnc23)ccc1N1CCN(C2COC2)CC1 [Compound 6, 6-(3,4-dihydro-2H-benzo[b][1,4]oxazin-7-yl)-N-(3-methoxy-4-(4-(oxetan-3-yl)piperazin-1-yl)phenyl)imidazo[1,2-a]pyrazin-8-amine]
27 | 8 | CC(C)N1CCN(c2ccc(Nc3nc(-c4cnc5c(c4)NCCO5)cn4ccnc34)cc2)CC1 [Compound 62, 6-(2,3-dihydro-1H-pyrido[2,3-b][1,4]oxazin-7-yl)-N-(4-(4-isopropylpiperazin-1-yl)phenyl)imidazo[1,2-a]pyrazin-8-amine]
28 | 4 | COc1cc(Nc2nc(-c3cnc4c(c3)NCCO4)cn3ccnc23)ccc1N1CCC(=O)CC1 [Compound 104, 1-(4-((6-(2,3-dihydro-1H-pyrido[2,3-b][1,4]oxazin-7-yl)imidazo[1,2-a]pyrazin-8-yl)amino)-2-methoxyphenyl)piperidin-4-one]
29 | 6 | C[C@H](O)[C@H]1CN(c2ccc(Nc3nc(-c4cnc5c(c4)NCCO5)cn4ccnc34)cc2)CCO1 [Compound 5, (S)-1-((R)-4-(4-((6-(2,3-dihydro-1H-pyrido[2,3-b][1,4]oxazin-7-yl)imidazo[1,2-a]pyrazin-8-yl)amino)phenyl)morpholin-2-yl)ethanol]
30 | 4 | CC(=O)N1CCN(c2ccc(Nc3nc(-c4cnc5c(c4)NCCO5)cn4ccnc34)cc2)CC1 [Compound 34]
